Data set [1] deals with Vasopressin V2 receptor (Homo sapiens, UniProt P30518). Kind of data set: Binding affinity towards cloned human Vasopressin V2 receptor by using functional assay.
The subject of data set [2] is Rattus norvegicus. As to the kind of experiment: Compound tested in vivo for antagonist potency against oxytocin (OT)-induced in rats by iv administration. In kind it is functional.
The target in data set [3] is T1, Oxytocin receptor (Rattus norvegicus, UniProt P70536).
T1 sequence (P70536 whole entry): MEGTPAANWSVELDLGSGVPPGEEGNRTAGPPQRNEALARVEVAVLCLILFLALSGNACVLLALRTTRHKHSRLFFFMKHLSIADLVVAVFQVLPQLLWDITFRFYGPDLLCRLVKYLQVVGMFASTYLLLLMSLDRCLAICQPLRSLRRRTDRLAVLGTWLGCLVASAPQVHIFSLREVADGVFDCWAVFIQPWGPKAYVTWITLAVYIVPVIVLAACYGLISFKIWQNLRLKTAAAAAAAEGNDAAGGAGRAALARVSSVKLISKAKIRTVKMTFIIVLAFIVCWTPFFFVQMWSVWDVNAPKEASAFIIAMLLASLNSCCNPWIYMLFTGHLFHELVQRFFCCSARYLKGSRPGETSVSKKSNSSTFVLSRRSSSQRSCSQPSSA
Kind of data set: Binding affinity for rat uterine oxytocin receptor (rOTr).

Data set [4] has as its target Vasopressin V1a receptor (Homo sapiens, UniProt P37288). Kind of data set: Binding affinity towards human Vasopressin V1a receptor by using functional assay.
Data set [5] deals with Vasopressin V1a receptor (Rattus norvegicus, UniProt P30560). As to the kind of experiment: Binding affinity towards rat liver Vasopressin V1a receptor by using functional assay.
Data set [6] has as its system Rattus norvegicus. Kind of data set: Compound tested in vivo for antagonist potency against oxytocin (OT)-induced in rats by id administration. Type of data set: functional.
Data set [7] is described as follows: Compound was evaluated for pharmacokinetic property in rats after an oral dose of 10 mg/kg and the value was reported as oral bioavailability (F). In kind it is ADME, organism-based. Conditions: rat, in vivo.
Data set [8] deals with Vasopressin V2 receptor (Rattus norvegicus, UniProt Q00788). As to the kind of experiment: Binding affinity towards rat kidney Vasopressin V2 receptor by using functional assay.
A short description of data set [9]: Oral bioavailability in rat (dose 20 mg/kg). Type of data set: ADME, organism-based. The settings on record: in vivo.
Data set [10] in a line: Compound was evaluated in vivo in rat for the plasma half-life at a iv dose of 3 mg/kg and oral dose of 10 mg/kg and experiment by using concentration vs time curve. Type of data set: ADME, organism-based.
Data set [11] concerns the target T2, Oxytocin receptor (Homo sapiens, UniProt P30559).
T2 sequence (P30559 whole entry): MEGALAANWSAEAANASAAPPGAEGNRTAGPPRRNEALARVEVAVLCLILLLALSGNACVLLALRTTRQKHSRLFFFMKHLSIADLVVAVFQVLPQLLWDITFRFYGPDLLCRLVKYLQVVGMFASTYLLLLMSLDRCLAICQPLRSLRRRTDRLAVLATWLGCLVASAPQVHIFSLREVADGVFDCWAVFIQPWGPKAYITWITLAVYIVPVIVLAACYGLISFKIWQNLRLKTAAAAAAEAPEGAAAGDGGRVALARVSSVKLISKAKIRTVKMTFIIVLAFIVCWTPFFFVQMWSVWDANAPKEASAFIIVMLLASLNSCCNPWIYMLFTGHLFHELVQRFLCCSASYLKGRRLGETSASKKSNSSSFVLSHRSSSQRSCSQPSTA
As to the kind of experiment: Binding affinity for human oxytocin receptor.

In data set [12] the test system is Rattus norvegicus. Kind of data set: Compound tested in vivo for antagonist potency against oxytocin (OT)-induced contractions in rat uterus by iv administration. Type of data set: functional.
Data set [13] is described as follows: Compound was evaluated in vivo in rat for the plasma half-life at a oral dose of 20 mg/kg experiment by using concentration vs time curve. Type of data set: ADME, organism-based. Further details: dose 20 mg/kg, route oral.

For orientation: Ki means a dissociation constant, usually derived from enzyme kinetics or from competition with a known ligand. Higher therefore signals weaker binding. For orientation: bioavailability means dose-corrected exposure relative to a reference, in per cent. The low end stands for poor availability, the high end for good availability. What is called half-life is the time in which the quantity being followed falls by half. A higher half-life goes with slow decline.

Vasopressin V2 receptor (Rattus norvegicus, UniProt Q00788), sequence (Q00788 whole entry): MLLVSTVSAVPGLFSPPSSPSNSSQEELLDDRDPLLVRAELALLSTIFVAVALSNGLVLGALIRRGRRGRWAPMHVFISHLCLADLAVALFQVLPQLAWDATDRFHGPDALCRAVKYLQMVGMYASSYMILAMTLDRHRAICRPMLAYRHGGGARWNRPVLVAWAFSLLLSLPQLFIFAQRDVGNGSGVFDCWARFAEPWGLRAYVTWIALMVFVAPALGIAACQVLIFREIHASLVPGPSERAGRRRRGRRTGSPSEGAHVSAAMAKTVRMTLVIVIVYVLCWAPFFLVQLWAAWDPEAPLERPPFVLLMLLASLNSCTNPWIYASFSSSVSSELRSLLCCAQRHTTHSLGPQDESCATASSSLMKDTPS
Vasopressin V2 receptor (Homo sapiens, UniProt P30518), sequence (P30518 whole entry): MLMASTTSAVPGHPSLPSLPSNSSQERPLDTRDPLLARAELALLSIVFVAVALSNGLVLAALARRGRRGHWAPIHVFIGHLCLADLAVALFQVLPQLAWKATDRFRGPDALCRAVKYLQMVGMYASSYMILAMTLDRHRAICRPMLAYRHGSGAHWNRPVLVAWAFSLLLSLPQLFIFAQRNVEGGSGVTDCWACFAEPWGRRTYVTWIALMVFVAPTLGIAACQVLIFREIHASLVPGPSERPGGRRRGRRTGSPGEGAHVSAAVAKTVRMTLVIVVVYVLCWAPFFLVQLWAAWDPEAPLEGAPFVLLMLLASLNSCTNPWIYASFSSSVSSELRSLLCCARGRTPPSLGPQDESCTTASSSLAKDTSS
Vasopressin V1a receptor (Homo sapiens, UniProt P37288), sequence (P37288 whole entry): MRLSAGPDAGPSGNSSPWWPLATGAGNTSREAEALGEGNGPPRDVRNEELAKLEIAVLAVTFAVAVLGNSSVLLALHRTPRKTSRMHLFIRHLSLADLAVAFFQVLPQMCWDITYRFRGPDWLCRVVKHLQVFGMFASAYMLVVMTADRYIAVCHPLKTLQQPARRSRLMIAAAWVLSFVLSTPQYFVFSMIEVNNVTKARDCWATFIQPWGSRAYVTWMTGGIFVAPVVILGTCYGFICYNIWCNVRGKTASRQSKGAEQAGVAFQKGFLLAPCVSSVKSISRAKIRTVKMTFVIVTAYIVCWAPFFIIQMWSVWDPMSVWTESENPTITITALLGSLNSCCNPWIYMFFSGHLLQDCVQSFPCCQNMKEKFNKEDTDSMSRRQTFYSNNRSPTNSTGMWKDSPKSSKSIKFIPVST
Vasopressin V1a receptor (Rattus norvegicus, UniProt P30560), sequence (P30560 whole entry): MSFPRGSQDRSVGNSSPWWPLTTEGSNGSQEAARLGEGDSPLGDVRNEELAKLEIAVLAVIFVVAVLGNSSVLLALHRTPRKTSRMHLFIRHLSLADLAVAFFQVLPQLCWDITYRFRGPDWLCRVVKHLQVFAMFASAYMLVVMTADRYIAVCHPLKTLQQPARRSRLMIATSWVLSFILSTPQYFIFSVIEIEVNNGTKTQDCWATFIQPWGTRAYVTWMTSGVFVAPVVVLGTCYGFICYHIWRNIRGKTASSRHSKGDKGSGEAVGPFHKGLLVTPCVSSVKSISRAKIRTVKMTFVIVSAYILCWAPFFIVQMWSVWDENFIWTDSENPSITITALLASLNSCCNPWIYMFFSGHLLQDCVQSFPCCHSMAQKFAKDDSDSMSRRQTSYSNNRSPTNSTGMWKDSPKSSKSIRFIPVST

In the case of `CC(=O)N1CCC(Oc2ccc(CC(=O)N3CCC(N4C(=O)OCc5ccccc54)CC3)c(OCC(F)(F)F)c2)CC1`, the Ki on Vasopressin V2 receptor [1] was 130 nM; on Oxytocin receptor [3], 0.71 nM; on Vasopressin V1a receptor [4], 740 nM; at Vasopressin V1a receptor [5], 2 nM; on Vasopressin V2 receptor [8], 150 nM; at Oxytocin receptor [11], 1.4 nM. Besides, the AD50 is 0.06 mg/kg in the data set on Rattus norvegicus [2] and 0.64 mg/kg with Rattus norvegicus [6]. Further, the bioavailability in [7] and in data set [9] was 19% each time. Besides, the half-life in data set [10] was 0.27 h.

`COc1ccc(CC(=O)N2CCC(N3C(=O)OCc4ccccc43)CC2)c(OC)c1`: the Ki on Oxytocin receptor [3] worked out at 37 nM; at Oxytocin receptor [11], 33 nM.

Consider `COc1cc(OC2CCN(C(C)=O)CC2)ccc1C(=O)N1CCC(N2C(=O)OCc3ccccc32)CC1`, for which the AD50 with Rattus norvegicus [12] was found to be 0.55 mg/kg; in the data set with Rattus norvegicus [6], 2.5 mg/kg. In data set [13], the half-life is 0.5 h.

With `O=C(Cc1ccc(OCCN2CCOCC2)cc1OCC(F)(F)F)N1CCC(N2C(=O)OCc3ccccc32)CC1`, the AD50 with Rattus norvegicus [2] amounted to 0.13 mg/kg. For the same compound, the Ki came out at 2.1 nM on Oxytocin receptor [3] and 1.4 nM at Oxytocin receptor [11]. The compound further had a bioavailability in data set [9] of 31%. This compound also showed a half-life in data set [10] of 2.8 h.

Take `CC(=O)N1CCC(Oc2ccc(CC(=O)N3CCC(N4C(=O)OCc5ccccc54)CC3)cc2)CC1`: the Ki was found to be 1600 nM at Oxytocin receptor [3] and 390 nM on Oxytocin receptor [11].

Consider `O=C(Cc1ccc(N2CCOCC2)cc1OCC(F)(F)F)N1CCC(N2C(=O)OCc3ccccc32)CC1`, for which the AD50 in the data set on Rattus norvegicus [2] turned out to be 0.077 mg/kg; in the data set with Rattus norvegicus [6] it was 0.97 mg/kg. Moreover, the values for the inhibition constant (Ki) at Oxytocin receptor [3] and at Oxytocin receptor [11] were 0.6 nM and 0.86 nM, respectively.

`CC(=O)N1CCC(Oc2ccc(CC(=O)N3CCC(N4C(=O)OCc5ccccc54)CC3)c(OC(F)(F)F)c2)CC1`: the AD50 in the data set with Rattus norvegicus [2] came to 0.27 mg/kg. Also, the Ki was 2.8 nM on Oxytocin receptor [3] and 2.4 nM at Oxytocin receptor [11].

In the case of `COc1ccc(CCC(=O)N2CCC(N3C(=O)OCc4ccccc43)CC2)c(OC)c1`, the Ki came to 520 nM at Oxytocin receptor [3] and 240 nM on Oxytocin receptor [11].

For `O=C(Cc1ccccc1OCC(F)(F)F)N1CCC(N2C(=O)OCc3ccccc32)CC1`, the AD50 in the data set with Rattus norvegicus [2] is 1 mg/kg; in the data set with Rattus norvegicus [6], above 10 mg/kg. Besides, the inhibition constant Ki was 6 nM on Oxytocin receptor [3] and 4.5 nM on Oxytocin receptor [11].

Regarding `COc1cc(OC2CCN(C(C)=O)CC2)ccc1CC(=O)N1CCC(N2C(=O)OCc3ccccc32)CC1`, the Ki on Oxytocin receptor [3] was found to be 36 nM; at Oxytocin receptor [11] it was 9.8 nM.

Consider `O=C(Cc1ccc(OC2CCN(CC3CC3)CC2)cc1OCC(F)(F)F)N1CCC(N2C(=O)OCc3ccccc32)CC1`, for which the AD50 in the data set with Rattus norvegicus [2] was 0.69 mg/kg; with Rattus norvegicus [6] it was 22 mg/kg. Moreover, the Ki worked out at 1.2 nM on Oxytocin receptor [3] and 1 nM on Oxytocin receptor [11]. Further, the bioavailability in data set [9] stood at 45%. The compound also showed a half-life in data set [10] of 1.7 h.

These data come from ChEMBL document CHEMBL1132047, “Nonpeptide oxytocin antagonists: analogs of L-371,257 with improved potency” (Bioorg Med Chem Lett, 1999).
